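Assay format: 96-well plates, 48-hour exposure. GI50 marks 50% less growth.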 Activity calls are given as the source filed them. No stated cut-off is given here; in the data, active = GI50 up to about 1.1 µM and inactive = higher.

Common to all, as to experiment: DTP human tumour cell line panel, 48 h
Assay [1] has as its system SK-MEL-5.
Assay [2] relates to OVCAR-3.
The test system of assay [3] is MDA-N.
Assay [4] relates to IGROV-1.
Assay [5] has as its system HOP-62.
The subject of assay [6] is DU-145.
Assay [7] relates to CAKI-1.
For assay [8], the system named is T47D.
Assay [9] has as its system OVCAR-5.
Assay [10] deals with A498.
In assay [11] the test system is KM12.
Assay [12] has as its system Hs-578T.
The test system of assay [13] is SK-MEL-28.
In assay [14] the test system is OVCAR-8.
Assay [15] deals with BT-549.
Assay [16] relates to SF-268.
For assay [17], the system named is UACC-62.
The test system of assay [18] is Malme-3M.
The test system of assay [19] is UACC-257.
Assay [20] has as its system NCI-H460.

One may read the GI50 as the concentration at which growth is held to half of that of the control. On to `CC(C)=CCCC(C)CCOS(=O)C(F)(F)F` (stereo not given), for which the GI50 in assay [1] was 15.8 µM (inactive); in assay [2], 11.2 µM (inactive); in assay [3] it was 1.6 µM (inactive); in assay [4], 12.8 µM (inactive); in assay [5], 70.1 µM (inactive); in [6], 35.3 µM (inactive). For the same compound, the GI50 in assay [7] was 25.2 µM (inactive); in assay [8], 43.7 µM (inactive); in assay [9], 11 µM (inactive); in [10], 20.8 µM (inactive); in assay [11], 88.7 µM (inactive); in assay [12], 1.16 µM (inactive). Moreover, the GI50 was 11 µM (inactive) in assay [13]; 6.78 µM (inactive) in assay [14]; 5.24 µM (inactive) in assay [15]; 17.7 µM (inactive) in [16]; 8.81 µM (inactive) in assay [17]; 3.15 µM (inactive) in assay [18]. Moreover, the figures for the GI50 in assay [19] and in [20] were 19.5 µM (inactive) and 16.1 µM (inactive), respectively.

As to `COC(=O)C(I(OS(=O)(=O)c1ccc(C)cc1)c1ccccc1)=P(c1ccccc1)(c1ccccc1)c1ccccc1`, the GI50 in [1] was 12.2 µM (inactive); in assay [2], 16.4 µM (inactive); in [3], 14.1 µM (inactive); in assay [4] it was 17.1 µM (inactive); in assay [5], 19.3 µM (inactive); in assay [6], 15.9 µM (inactive). Moreover, the GI50 in assay [7] was 40.2 µM (inactive); in [8], 15.9 µM (inactive); in assay [9], 28.6 µM (inactive); in [10], 18.2 µM (inactive); in assay [11], 19.5 µM (inactive); in assay [12] it was 24.7 µM (inactive). In addition, the GI50 is 15.1 µM (inactive) in assay [13]; 21.2 µM (inactive) in [14]; 21.2 µM (inactive) in assay [15]; 17.5 µM (inactive) in assay [16]; 18.7 µM (inactive) in [17]; 7.94 µM (inactive) in assay [18]. In addition, the GI50 in [19] is 17.9 µM (inactive); in [20], 29.9 µM (inactive).

With `CC1(O)CC2(O)C=CC3=C(C(=O)c4cccc(O)c4C3=O)C2(O)C(=O)C1O` (stereo not given), the GI50 in [1] is 3.3 µM (inactive); in assay [2] it was 2.28 µM (inactive); in assay [3], 1.78 µM (inactive); in [4], 4.6 µM (inactive); in assay [5], 21.6 µM (inactive); in [6] it was 18.4 µM (inactive). The GI50 in assay [7] was 0.91 µM (active); in assay [8] it was 1.64 µM (inactive); in [9], 5.04 µM (inactive); in assay [10] it was 7.26 µM (inactive); in assay [11] it was 8 µM (inactive); in [12] it was 3.1 µM (inactive). Further, the GI50 is 1.69 µM (inactive) in [13]; 3.56 µM (inactive) in [14]; 1.17 µM (inactive) in [15]; 5.46 µM (inactive) in [16]; 2.94 µM (inactive) in assay [17]; 0.406 µM (active) in [18]. Also, the GI50 in assay [19] was 1.25 µM (inactive); in [20], 15.6 µM (inactive).

With `O=C1C(O)=C(C(CCc2ccccc2)C2=C(O)C(=O)c3ccccc3C2=O)C(=O)c2ccccc21`, the GI50 is 4.08 µM (inactive) in assay [1]; 30.7 µM (inactive) in [2]; 16.2 µM (inactive) in [3]; 34.6 µM (inactive) in [4]; 28.8 µM (inactive) in assay [5]; 8.55 µM (inactive) in assay [6]. In addition, the GI50 in assay [7] is > 100 µM (inactive); in [8], > 100 µM (inactive); in [9], > 100 µM (inactive); in assay [10], 76.4 µM (inactive); in assay [11], > 100 µM (inactive); in assay [12], 5.32 µM (inactive). The GI50 in assay [13] is > 100 µM (inactive); in [14], 57.1 µM (inactive); in [15] it was > 100 µM (inactive); in [16], 92.9 µM (inactive); in assay [17] it was 13.7 µM (inactive); in [18], 4.27 µM (inactive). For the same compound, the values for the GI50 in assay [19] and in assay [20] were 13.4 µM (inactive) and 3.61 µM (inactive), respectively.

Regarding `CCOC(=O)C1C2C1C1C(C(=O)OCC)C21` (stereo not given), the GI50 in assay [1], in assay [2], in [3], in assay [4], in [5] and in assay [6] was > 100 µM (inactive) in each case. Besides, the GI50 in [7] was > 100 µM (inactive); in assay [8], 49.2 µM (inactive); in assay [9], > 100 µM (inactive); in assay [10] it was > 100 µM (inactive); in [11], > 100 µM (inactive); in [12], > 100 µM (inactive). Also, the GI50 in assay [13], in assay [14], in [15], in assay [16], in assay [17] and in [18] was > 100 µM (inactive) each time. Besides, the GI50 is 61 µM (inactive) in assay [19] and > 100 µM (inactive) in assay [20].

The record behind these values is ChEMBL document CHEMBL1201862, “PubChem BioAssay data set” (2004).
